As usually defined, the pIC50 is the IC50 on a negative log10 scale, so that one unit is a factor of ten.

For the assay, the target named is Arachidonate 5-lipoxygenase (Cavia porcellus). Description: Inhibitory activity against 5-lipoxygenase in guinea pig leukocytes was determined.

pIC50: −log10 of the molar value.

In turn, `Cc1ccnc(N2CCN(CCC3Cn4c(-c5cc(C)c(O)c(C)c5)c(C)c5cc(O)cc(c54)O3)CC2)c1` (configuration not stated) [5-(4-Hydroxy-3,5-dimethyl-phenyl)-6-methyl-2-{2-[4-(4-methyl-pyridin-2-yl)-piperazin-1-yl]-ethyl}-2,3-dihydro-[1,4]oxazino[2,3,4-hi]indol-8-ol] showed a pIC50 of 6.74.
As to `COc1ccc2[nH]c(-c3cc(C)c(O)c(C)c3)c(C)c2c1` [TZI-41127], the pIC50 is 6.62.

For the origin of these results see BindingDB's records for doi:10.1016/S0960-894X(01)80395-4 (1994).
